Key:
barnyard grass [1] = assay: Test Example 3: herbicidal effect by foliage application, Wagner pot (Table 18, symbol H); type: in vivo, barnyard grass (Echinochloa crus-galli); details: 320 g/ha
How it was run: (§1)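 Plants were sown in alluvial soil held under 0.1–0.5 cm standing water and grown 14 days in a greenhouse at 25–30 °C. An emulsifiable formulation, water-diluted to the set dose, was then sprayed onto the foliage, and effects were scored three weeks later using previously defined criteria.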

Chinese sprangletop = assay: Test Example 3: herbicidal effect by foliage application, Wagner pot (Table 18, symbol D); type: in vivo, chinese sprangletop (Leptochloa chinensis); details: 320 g/ha
How it was run: as §1

rice flat sedge = assay: Test Example 3: herbicidal effect by foliage application, Wagner pot (Table 18, symbol E); type: in vivo, rice flat sedge (Cyperus iria); details: 320 g/ha
How it was run: as §1

southern crabgrass [2] = assay: Test Example 5: herbicidal effect by foliage application, plastic box (Table 20, symbol F); type: in vivo, southern crabgrass (Digitaria ciliaris)
How it was run: (§2)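 Post-emergence foliar test in sterilized diluvial soil. Compound applied as water-diluted emulsion at a predetermined rate to 14-day-old plants; evaluation at three weeks.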

green foxtail [3] = assay: Test Example 5: herbicidal effect by foliage application, plastic box (Table 20, symbol G); type: in vivo, green foxtail (Setaria viridis)
How it was run: as §2

barnyard grass [4] = assay: Test Example 5: herbicidal effect by foliage application, plastic box (Table 20, symbol H); type: in vivo, barnyard grass (Echinochloa crus-galli)
How it was run: as §2

wild oat [5] = assay: Test Example 5: herbicidal effect by foliage application, plastic box (Table 20, symbol I); type: in vivo, wild oat (Avena fatua)
How it was run: as §2

blackgrass [6] = assay: Test Example 5: herbicidal effect by foliage application, plastic box (Table 20, symbol J); type: in vivo, blackgrass (Alopecurus myosuroides)
How it was run: as §2

Italian ryegrass [7] = assay: Test Example 5: herbicidal effect by foliage application, plastic box (Table 20, symbol K); type: in vivo, Italian ryegrass (Lolium multiflorum)
How it was run: as §2

windgrass [8] = assay: Test Example 5: herbicidal effect by foliage application, plastic box (Table 20, symbol L); type: in vivo, windgrass (Apera spica-venti)
How it was run: as §2

velvetleaf [9] = assay: Test Example 5: herbicidal effect by foliage application, plastic box (Table 20, symbol M); type: in vivo, velvetleaf (Abutilon theophrasti)
How it was run: as §2

redroot pigweed [10] = assay: Test Example 5: herbicidal effect by foliage application, plastic box (Table 20, symbol N); type: in vivo, redroot pigweed (Amaranthus retroflexus); details: 320 g/ha, foliage application after 14-day growth, evaluated three weeks after application
How it was run: as §2

lambsquarters [11] = assay: Test Example 5: herbicidal effect by foliage application, plastic box (Table 20, symbol O); type: in vivo, lambsquarters (Chenopodium album)
How it was run: as §2

chickweed [12] = assay: Test Example 5: herbicidal effect by foliage application, plastic box (Table 20, symbol P); type: in vivo, common chickweed (Stellaria media); details: 320 g/ha, foliage application after 14-day growth, evaluated three weeks after application
How it was run: as §2

false cleavers = assay: Test Example 5: herbicidal effect by foliage application, plastic box (Table 20, symbol Q); type: in vivo, false cleavers (Galium spurium)
How it was run: as §2

persian speedwell [13] = assay: Test Example 5: herbicidal effect by foliage application, plastic box (Table 20, symbol R); type: in vivo, Persian speedwell (Veronica persica)
How it was run: as §2

southern crabgrass [14] = assay: Test Example 4: herbicidal effect by soil treatment (Table 19, symbol F); type: in vivo, southern crabgrass (Digitaria ciliaris); details: amount of applied herbicide 194 g/ha
How it was run: (§3)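 Emulsion of test compound, water-diluted to predetermined amount, sprayed on soil after sowing (seed depth ~1.5 cm, sterilized diluvial soil). Greenhouse, 25–30° C. Effect graded at three weeks post-spray.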

green foxtail [15] = assay: Test Example 4: herbicidal effect by soil treatment (Table 19, symbol G); type: in vivo, green foxtail (Setaria viridis); details: amount of applied herbicide 194 g/ha
How it was run: as §3

barnyard grass [16] = assay: Test Example 4: herbicidal effect by soil treatment (Table 19, symbol H); type: in vivo, barnyard grass (Echinochloa crus-galli); details: amount of applied herbicide 194 g/ha
How it was run: as §3

wild oat [17] = assay: Test Example 4: herbicidal effect by soil treatment (Table 19, symbol I); type: in vivo, wild oat (Avena fatua); details: amount of applied herbicide 194 g/ha
How it was run: as §3

blackgrass [18] = assay: Test Example 4: herbicidal effect by soil treatment (Table 19, symbol J); type: in vivo, blackgrass (Alopecurus myosuroides); details: amount of applied herbicide 194 g/ha
How it was run: as §3

Italian ryegrass [19] = assay: Test Example 4: herbicidal effect by soil treatment (Table 19, symbol K); type: in vivo, Italian ryegrass (Lolium multiflorum); details: amount of applied herbicide 194 g/ha
How it was run: as §3

windgrass [20] = assay: Test Example 4: herbicidal effect by soil treatment (Table 19, symbol L); type: in vivo, windgrass (Apera spica-venti); details: amount of applied herbicide 194 g/ha
How it was run: as §3

velvetleaf [21] = assay: Test Example 4: herbicidal effect by soil treatment (Table 19, symbol M); type: in vivo, velvetleaf (Abutilon theophrasti); details: amount of applied herbicide 194 g/ha
How it was run: as §3

redroot pigweed [22] = assay: Test Example 4: herbicidal effect by soil treatment (Table 19, symbol N); type: in vivo, redroot pigweed (Amaranthus retroflexus); details: amount of applied herbicide 194 g/ha
How it was run: as §3

lambsquarters [23] = assay: Test Example 4: herbicidal effect by soil treatment (Table 19, symbol O); type: in vivo, lambsquarters (Chenopodium album); details: amount of applied herbicide 194 g/ha
How it was run: as §3

chickweed [24] = assay: Test Example 4: herbicidal effect by soil treatment (Table 19, symbol P); type: in vivo, common chickweed (Stellaria media); details: amount of applied herbicide 194 g/ha
How it was run: as §3

persian speedwell [25] = assay: Test Example 4: herbicidal effect by soil treatment (Table 19, symbol R); type: in vivo, Persian speedwell (Veronica persica); details: amount of applied herbicide 194 g/ha
How it was run: as §3

[26] = 320 g/ha, foliage application after 14-day growth, evaluated three weeks after application
[27] = foliage application, 194 g/ha, three weeks after application

COc1ccccc1-c1sc2c(OC)cccc2c1-c1c(O)c(C)nn(C)c1=O [4-039]
herbicidal effect on barnyard grass (H) (barnyard grass [1]): 4 (Herbicidal rate of 70% or more and less than 90%)
herbicidal effect on Chinese sprangletop (D) (Chinese sprangletop): 3 (Herbicidal rate of 40% or more and less than 70%)
herbicidal effect on rice flat sedge (E) (rice flat sedge): 3 (Herbicidal rate of 40% or more and less than 70%)
herbicidal effect on F: southern crabgrass (evaluation grade 0-5) (southern crabgrass [2]; [26]): 3 (Herbicidal rate of 40% or more and less than 70%)
herbicidal effect on G: green foxtail (evaluation grade 0-5) (green foxtail [3]; [26]): 4 (Herbicidal rate of 70% or more and less than 90%)
herbicidal effect on H: barnyard grass (evaluation grade 0-5) (barnyard grass [4]; [26]): 3 (Herbicidal rate of 40% or more and less than 70%)
herbicidal effect on I: wild oat (evaluation grade 0-5) (wild oat [5]; [26]): 3 (Herbicidal rate of 40% or more and less than 70%)
herbicidal effect on J: blackgrass (evaluation grade 0-5) (blackgrass [6]; [26]): 2 (Herbicidal rate of 20% or more and less than 40%)
herbicidal effect on K: Italian ryegrass (evaluation grade 0-5) (Italian ryegrass [7]; [26]): 0 (Herbicidal rate of 5% or less (almost no effect))
herbicidal effect on L: windgrass (evaluation grade 0-5) (windgrass [8]; [26]): 3 (Herbicidal rate of 40% or more and less than 70%)
herbicidal effect on M: velvetleaf (evaluation grade 0-5) (velvetleaf [9]; [26]): 4 (Herbicidal rate of 70% or more and less than 90%)
herbicidal effect on N: redroot pigweed (evaluation grade 0-5) (redroot pigweed [10]): 3 (Herbicidal rate of 40% or more and less than 70%)
herbicidal effect on O: lambsquarters (evaluation grade 0-5) (lambsquarters [11]; [26]): 2 (Herbicidal rate of 20% or more and less than 40%)
herbicidal effect on P: chickweed (evaluation grade 0-5) (chickweed [12]): 2 (Herbicidal rate of 20% or more and less than 40%)
herbicidal effect on Q: false cleavers (evaluation grade 0-5) (false cleavers; [26]): 3 (Herbicidal rate of 40% or more and less than 70%)
herbicidal effect on R: persian speedwell (evaluation grade 0-5) (persian speedwell [13]; [26]): 3 (Herbicidal rate of 40% or more and less than 70%)

Cc1ccc2oc(-c3ccc(F)cc3)c(-c3c(O)c(C)nn(C)c3=O)c2c1 [9-004]
F: southern crabgrass, herbicidal effect grade (southern crabgrass [14]): 2 (Herbicidal rate of 20% or more and less than 40%)
G: green foxtail, herbicidal effect grade (green foxtail [15]): 2 (Herbicidal rate of 20% or more and less than 40%)
H: barnyard grass, herbicidal effect grade (barnyard grass [16]): 3 (Herbicidal rate of 40% or more and less than 70%)
I: wild oat, herbicidal effect grade (wild oat [17]): 0 (Herbicidal rate of 5% or less (almost no effect))
J: blackgrass, herbicidal effect grade (blackgrass [18]): 0 (Herbicidal rate of 5% or less (almost no effect))
K: Italian ryegrass, herbicidal effect grade (Italian ryegrass [19]): 4 (Herbicidal rate of 70% or more and less than 90%)
L: windgrass, herbicidal effect grade (windgrass [20]): 0 (Herbicidal rate of 5% or less (almost no effect))
M: velvetleaf, herbicidal effect grade (velvetleaf [21]): 0 (Herbicidal rate of 5% or less (almost no effect))
N: redroot pigweed, herbicidal effect grade (redroot pigweed [22]): 3 (Herbicidal rate of 40% or more and less than 70%)
O: lambsquarters, herbicidal effect grade (lambsquarters [23]): 5 (Herbicidal rate of 90% or more (almost completely withered))
P: chickweed, herbicidal effect grade (chickweed [24]): 3 (Herbicidal rate of 40% or more and less than 70%)
R: persian speedwell, herbicidal effect grade (persian speedwell [25]): 1 (Herbicidal rate of 5% or more and less than 20%)
herbicidal effect on southern crabgrass (F) (southern crabgrass [2]; [27]): 2 (Herbicidal rate of 20% or more and less than 40%)
herbicidal effect on green foxtail (G) (green foxtail [3]; [27]): 3 (Herbicidal rate of 40% or more and less than 70%)
herbicidal effect on barnyard grass (H) (barnyard grass [4]; [27]): 3 (Herbicidal rate of 40% or more and less than 70%)
herbicidal effect on wild oat (I) (wild oat [5]; [27]): 0 (Herbicidal rate of 5% or less (almost no effect))
herbicidal effect on blackgrass (J) (blackgrass [6]; [27]): 3 (Herbicidal rate of 40% or more and less than 70%)
herbicidal effect on Italian ryegrass (K) (Italian ryegrass [7]; [27]): 5 (Herbicidal rate of 90% or more (almost completely withered))
herbicidal effect on windgrass (L) (windgrass [8]; [27]): 0 (Herbicidal rate of 5% or less (almost no effect))
herbicidal effect on velvetleaf (M) (velvetleaf [9]; [27]): 3 (Herbicidal rate of 40% or more and less than 70%)
herbicidal effect on lambsquarters (O) (lambsquarters [11]; [27]): 3 (Herbicidal rate of 40% or more and less than 70%)
herbicidal effect on false cleavers (Q) (false cleavers; [27]): 4 (Herbicidal rate of 70% or more and less than 90%)
herbicidal effect on persian speedwell (R) (persian speedwell [13]; [27]): 5 (Herbicidal rate of 90% or more (almost completely withered))

Reference: patent US20230085307A1, “PYRIDAZINONE COMPOUND AND HERBICIDE” (NISSAN CHEMICAL CORPORATION, priority 2019, published 2023)
